Laboratory results published in patent US20070145618A1, “Methods of making microencapsulated delivery vehicles” (Kimberly-Clark Worldwide, Inc., priority 2005, published 2007).
Where two headings read alike, the source gives them in different places.

Key:
[1] = particle size less than 250 micrometers; 35 wt % in mineral oil; added to 7.0 grams de-ionized water; compared with three other size ranges
Description: In this example, samples incorporating various size ranges of anhydrous magnesium chloride suspended in mineral oil at 35 wt % were evaluated for their ability to generate heat upon introduction into water.
The four size ranges of anhydrous magnesium chloride evaluated were: (1) 1000-1500 microns; (2) 600-1000 microns; (3) 250-600 microns; and (4) less than 250 microns. To produce the samples of anhydrous magnesium chloride in mineral oil, the various size ranges of anhydrous magnesium chloride powder (Magnesium Interface Inc. (Vancouver, B.C., Canada) were suspended at 35 wt % in mineral oil (available as Drakeol 7 LT NF from Penreco, Dickinson, Tex.). To produce the samples having anhydrous magnesium chloride with size ranges of 1000-1500 microns, 600-1000 microns, and 250-600 microns, the as received anhydrous magnesium chloride powder was hand screened into the size ranges desired and the powders collected. These powders were suspended at 35 wt % in mineral oil using a cowles mixing blade. […]
All four samples were then added to 7.0 grams de-ionized water and the resulting temperature rise was measured using a J type Thermocouple (available from Omega Engineering, Inc., Stamford, Conn.).

[2] = particle size 149-355 micrometers; 35 wt % in mineral oil; added to 7.0 grams de-ionized water; compared with four other size ranges
Description: In this example, samples incorporating various size ranges of anhydrous calcium chloride suspended in mineral oil at 35 wt % were evaluated for their ability to generate heat upon introduction into water.
The five size ranges of anhydrous calcium chloride evaluated were: (1) less than 149 microns; (2) 149-355 microns; (3) 710-1190 microns; (4) 1190-2000 microns; and (5) 2000-4000 microns. The samples of anhydrous calcium chloride (Dow Chemical, Midland, Mich.) were dispersed in mineral oil (available as Drakeol 7 LT NF from Penreco, Dickinson, Tex.). The as received anhydrous calcium chloride were screened dry using a Gilson Sonic Sieve (Gilson Company, Inc. Columbus, Ohio) to create two sizes, a 1190-2000 micron size and a 2000-4000 micron size. These powders were then suspended at 35 wt % in mineral oil to form a slurry using a cowles mixing blade. To achieve the smaller size distributions, the anhydrous calcium chloride powder required further processing. […]
All five samples were then individually added to 7.0 grams de-ionized water and the resulting temperature rise was measured using a Barnant Scanning Thermocouple (available from Therm-X of California, Hayward, Calif.).

Row | SMILES | rate of heat release (heat generation rate) [1] | rate of heat release (heat generation rate) [2]
1 | [Cl-].[Cl-].[Mg+2] [anhydrous magnesium chloride, magnesium chloride] | highest rate | –
2 | [Ca+2].[Cl-].[Cl-] [anhydrous calcium chloride, calcium chloride] | – | highest rate
